Source: US8188078B2 (Sanofi-Aventis, priority 2007, dated 2012)
pIC50: −log10 of the molar value.

How the values were obtained:
[1] = biological target: T1, c-MET (Homo sapiens, UniProt P08581); assay: Test A: HTRF Met test in 96-well format; format: biochemical
T1 construct: The recombinant DNA His-Tev-MET (956-1390) in pFastBac(Invitrogen); His (N, cleaved yes); Tev (TEV protease site) (N, cleaved yes); made in house; host or cells: SF21 insect cells (baculovirus, pFastBac)
Experimental: I) Expression and Purification of MET, Cytoplasmic Domain
The recombinant DNA His-Tev-MET (956-1390) in pFastBac(Invitrogen) is transfected in insect cells and after several stages of viral amplification, the final stock of baculovirus is tested for expression of the protein of interest.
After infection for 72 h at 27° C. with the recombinant virus, the SF21 cell cultures are harvested by centrifugation and the cellular deposits are stored at −80° C.
The cellular deposits are resuspended in the lysis buffer (buffer A [50 mM HEPES, pH 7.5, 250 mM NaCl, Glycerol 10%, TECP 1 mM]; +cocktail of protease inhibitors Roche Diagnostics without EDTA, ref 1873580), stirred at 4° C. until homogeneous, then lysed mechanically using apparatus of the “Dounce” type.
After centrifugation, the lysis supernatant is incubated for 2 h at 4° C. with Nickel Chelate resin (His-Trap 6 Fast Flow™, GE HealthCare). After washing with 20 volumes of Tp A, the suspension is packed in a column, and the proteins are eluted with a gradient of buffer B ([…]+290 mM imidazole).
The fractions containing the protein of interest with a view to electrophoretic analysis (SDS PAGE) are collected, concentrated by ultrafiltration (cut-off 10 kDa) and injected in an exclusion chromatography column (Superdex™ 200, GE HealthCare) equilibrated with buffer A.
After enzymatic cleavage of the tag Histidine, the protein is reinjected in a new IMAC Nickel Chelate chromatography column (His-Trap 6 Fast Flow™, GE HealthCare) equilibrated with Buffer A. The fractions eluted with a gradient of buffer B and containing the protein of interest after electrophoresis (SDS PAGE), are finally collected and stored at −80° C.
For the production of autophosphorylated protein, the preceding fractions are incubated for 1 h at room temperature after adding ATP 2 mM, MgCl2 2 mM, and Na3VO4 4 mM. After stopping the reaction with 5 mM of EDTA, the reaction mixture is injected in a HiPrep desalting column (GE HealthCare) equilibrated beforehand with buffer A+Na3VO4 4 mM; the fractions containing the protein of interest (SDS PAGE analysis) are collected and stored at −80° C. The degree of phosphorylation is verified by mass spectrometry (LC-MS), and by peptide mapping.
A) HTRF Met test in 96-well format
In a final volume of 50 μl of enzymatic reaction mixture, final c-MET 5 nM is incubated in the presence of the molecule to be tested (for a final concentration range from 0.17 nM to 10 μM, final DMSO 3%) in buffer MOPS 10 mM pH 7.4, DTT 1 mM, Tween 20 0.01%. The reaction is initiated by the substrate solution to obtain the final concentrations of poly-(GAT) 1 μg/ml, ATP 10 μM and MgCl2 5 mM. After incubation for 10 min at room temperature, the reaction is stopped with a mix of 30 μl to obtain a final solution of Hepes 50 mM pH 7.5, potassium fluoride 500 mM, BSA 0.1% and EDTA 133 mM in the presence of 80 ng Streptavidin 61SAXLB Cis-Bio Int. and 18 ng anti-phosphotyrosine Mab PT66-Europium Cryptate per well. After 2 hours of incubation at room temperature, reading is carried out at 2 wavelengths 620 nm and 665 nm in a reader for the TRACE/HTRF technique and the percentage inhibition is calculated according to the 665/620 ratios.

[2] = biological target: T2, MET (Homo sapiens, UniProt P08581); assay: Test C: inhibition of the autophosphorylation of MET, ELISA technique (pppY1230, 1234, 1235), MKN45 cells; format: cell-based
T2 construct: endogenous in cells; host or cells: MKN45 cells
T2 sequence (P08581 25-1390): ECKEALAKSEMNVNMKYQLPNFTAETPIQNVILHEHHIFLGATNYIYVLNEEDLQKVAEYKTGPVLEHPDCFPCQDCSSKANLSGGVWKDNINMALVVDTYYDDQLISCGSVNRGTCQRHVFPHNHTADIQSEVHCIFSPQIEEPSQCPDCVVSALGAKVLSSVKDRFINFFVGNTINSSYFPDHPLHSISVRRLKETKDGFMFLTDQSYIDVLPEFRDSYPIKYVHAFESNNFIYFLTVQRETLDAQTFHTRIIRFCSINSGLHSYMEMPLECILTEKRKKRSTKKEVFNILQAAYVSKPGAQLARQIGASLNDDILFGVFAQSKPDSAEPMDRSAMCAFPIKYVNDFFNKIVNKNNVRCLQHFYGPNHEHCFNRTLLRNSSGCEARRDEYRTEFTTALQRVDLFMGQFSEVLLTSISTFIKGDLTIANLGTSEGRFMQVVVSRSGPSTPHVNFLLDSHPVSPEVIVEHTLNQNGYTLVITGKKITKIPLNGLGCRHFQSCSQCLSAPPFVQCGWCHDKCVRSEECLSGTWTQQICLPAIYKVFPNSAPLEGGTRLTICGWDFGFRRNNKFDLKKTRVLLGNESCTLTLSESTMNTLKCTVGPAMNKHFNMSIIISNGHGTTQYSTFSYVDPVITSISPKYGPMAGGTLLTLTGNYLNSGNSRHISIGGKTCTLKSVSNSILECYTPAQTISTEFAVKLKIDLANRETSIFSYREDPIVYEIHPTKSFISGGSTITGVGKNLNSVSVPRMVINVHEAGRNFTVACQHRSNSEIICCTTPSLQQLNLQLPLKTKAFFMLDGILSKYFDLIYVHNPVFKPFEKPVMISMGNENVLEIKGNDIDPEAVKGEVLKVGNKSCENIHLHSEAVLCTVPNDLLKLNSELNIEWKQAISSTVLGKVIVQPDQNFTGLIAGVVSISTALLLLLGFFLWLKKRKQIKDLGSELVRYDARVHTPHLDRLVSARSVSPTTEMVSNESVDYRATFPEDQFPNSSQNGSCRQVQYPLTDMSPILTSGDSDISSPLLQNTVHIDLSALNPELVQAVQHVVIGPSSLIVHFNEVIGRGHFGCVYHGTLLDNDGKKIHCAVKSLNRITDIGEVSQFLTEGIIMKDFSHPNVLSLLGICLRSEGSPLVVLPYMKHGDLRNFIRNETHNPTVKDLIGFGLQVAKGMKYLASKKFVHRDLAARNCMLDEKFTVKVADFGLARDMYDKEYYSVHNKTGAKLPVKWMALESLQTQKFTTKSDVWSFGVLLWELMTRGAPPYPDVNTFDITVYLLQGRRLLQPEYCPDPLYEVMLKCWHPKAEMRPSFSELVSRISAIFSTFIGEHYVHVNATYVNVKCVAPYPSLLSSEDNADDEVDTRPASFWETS
Experimental: C) Inhibition of the Autophosphorylation of MET; ELISA Technique (pppY1230, 1234, 1235)
a) Cellular lysates: Sow the MKN45 cells in a 96-well plate (Cell coat BD polylysine) at 20 000 cells/well under 200 μl of medium RPMI+10% FCS+1% L-glutamine. Leave to adhere to the incubator for 24 h.
The cells are treated on the day after sowing with the products at 6 concentrations in duplicate for 1 h. At least 3 control wells are treated with the same amount of final DMSO.
Dilution of the products: Stock at 10 mM in pure DMSO—range from 10 mM to 30 μM with steps of 3 of pure DMSO—Intermediate dilutions to 1/50 in culture medium then taking of 10 μl added directly to the cells (200 μl): final range from 10000 to 30 nM.
At the end of incubation, carefully remove the supernatant and rinse with 200 μl of PBS. Then put 100 μl of lysis buffer directly in the wells on ice and incubate at 4° C. for 30 minutes. Lysis buffer: 10 mM Tris, HCl pH7.4, 100 mM NaCl, 1 mM EDTA, 1 mM EGTA, 1% Triton X-100, 10% glycerol, 0.1% SDS, 0.5% deoxycholate, 20 mM NaF, 2 mM Na3VO4, 1 mM PMSF and antiprotease cocktail.
The 100 μl of lysates are transferred to a V-bottomed polypropylene plate and ELISA is performed next or the plate is frozen at −80° C.
b) ELISA PhosphoMET BioSource Kit KH00281
In each well of the plate from the kit, add 70 μl of dilution buffer from the kit+30 μL of cell lysate or 30 μl of lysis buffer for the blank. Incubate for 2 h at room temperature, stirring gently.
Rinse the wells 4 times with 400 μl of washing buffer from the kit. Incubate with 100 μl of anti-phospho MET antibodies for 1 h at room temperature.
Rinse the wells 4 times with 400 μl of washing buffer from the kit. Incubate with 100 μl of anti-rabbit HRP antibodies for 30 minutes at room temperature (except for the wells with chromogen only).
Rinse the wells 4 times with 400 μl of washing buffer from the kit. Add 100 μL of chromogen and incubate for 30 minutes in the dark at room temperature.
Stop the reaction with 100 μl of stop solution. Read at once at […] 0.1 second in the Wallac Victor plate reader.
The products of formula (I) as defined above show cellular activity in this test between 10 nM and 10 μM.

[3] = test system: MKN45 cells; assay: Test D: cellular proliferation by 14C-thymidine pulse, MKN45 cells; format: cell-based; conditions: Homo sapiens, MKN-45, cellular proliferation by 14C-thymidine pulse; cell line not stated (HCT116 or MKN45)
Experimental: D) Measurement of Cellular Proliferation by 14C-Thymidine Pulse
The cells are sown in Cytostar 96-well plates under 180 μl for 4 hours at 37° C. and 5% CO2: The HCT116 cells at a rate of 2500 cells per well in DMEM medium+10% foetal calf serum+1% of L-glutamine and the MKN45 cells at a rate of 7500 cells per well in RPMI medium+10% foetal calf serum+1% of L-glutamine. After said incubation for 4 hours, the products are added under 10 μl in 20-times concentrated solution according to the method of dilution stated for ELISA. The products are tested at 10 concentrations in duplicate from 10000 nM to 0.3 nM in steps of 3.
After treatment for 72 h, add 10 μl of 14C-thymidine at 10 μCi/ml to obtain 0.1 μCi per well. The incorporation of 14C-thymidine is measured on a Micro-Beta (Perkin-Elmer) after 24 hours of pulse and 96 h of treatment.
All the stages of the test are automated on the BIOMEK 2000 or TECAN stations.

T1 sequence (P08581 956-1390): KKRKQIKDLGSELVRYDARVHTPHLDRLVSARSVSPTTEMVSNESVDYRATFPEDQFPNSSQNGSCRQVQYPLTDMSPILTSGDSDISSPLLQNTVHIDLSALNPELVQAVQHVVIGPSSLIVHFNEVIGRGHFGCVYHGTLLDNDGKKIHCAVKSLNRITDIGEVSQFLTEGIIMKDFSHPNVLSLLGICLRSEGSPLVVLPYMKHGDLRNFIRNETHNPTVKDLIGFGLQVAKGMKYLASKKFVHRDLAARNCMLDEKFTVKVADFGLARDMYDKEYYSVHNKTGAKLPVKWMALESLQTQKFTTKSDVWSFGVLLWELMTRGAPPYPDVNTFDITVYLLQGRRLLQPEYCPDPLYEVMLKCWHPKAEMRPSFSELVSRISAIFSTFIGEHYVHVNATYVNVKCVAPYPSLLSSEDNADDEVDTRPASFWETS

Row | SMILES | melting point [°C] | pIC50 [1] | pIC50 [2] | pIC50 [3]
1 | CC(Oc1ccc2nc(NC(=O)NCCN3CCOCC3)sc2c1)c1c(F)ccc(Cl)c1F (stereo not drawn) [Example 63, 1-{6-[1-(3-chloro-2,6-difluorophenyl)ethoxy]-1,3-benzothiazol-2-yl}-3-(2-morpholin-4-ylethyl)urea] | 154 | 5.00 to 7.00 | 5.00 to 6.30 | < 5.00
2 | O=C(Nc1nc2cc(F)c(OCc3c(Cl)cccc3Cl)cc2s1)C1CC1 [Example 22, N-{6-[(2,6-dichlorobenzyl)oxy]-5-fluoro-1,3-benzothiazol-2-yl}cyclopropanecarboxamide] | 215 | > 7.00 | 5.00 to 6.30 | < 5.00
3 | CC(Oc1cc2sc(NC(=O)NCCn3cccc3)nc2cc1F)c1c(Cl)ccc(F)c1Cl (stereo not drawn) [Example 91, 1-{6-[1-(2,6-dichloro-3-fluorophenyl)ethoxy]-5-fluoro-1,3-benzothiazol-2-yl}-3-[2-(1H-pyrrol-1-yl)ethyl]urea] | 178 to 198 | > 7.00 | 5.00 to 6.30 | 5.00 to 6.30
4 | CC(Oc1cc2sc(NC(=O)C3CC3)nc2cc1F)c1c(Cl)ccc(F)c1Cl (stereo not drawn) [Example 67, N-{6-[1-(2,6-dichloro-3-fluorophenyl)ethoxy]-5-fluoro-1,3-benzothiazol-2-yl}cyclopropanecarboxamide] | 186 to 189 | > 7.00 | > 6.30 | > 6.30
5 | CCOCCNC(=O)Nc1nc2cc(F)c(OC(C)c3c(Cl)ccc(F)c3Cl)cc2s1 (stereo not drawn) [Example 86, 1-{6-[1-(2,6-dichloro-3-fluorophenyl)ethoxy]-5-fluoro-1,3-benzothiazol-2-yl}-3-(2-ethoxyethyl)urea] | 166 to 167 | > 7.00 | > 6.30 | 5.00 to 6.30
6 | Cc1cc2nc(NC(=O)NCCN3CCOCC3)sc2cc1OC(C)c1c(Cl)ccc(F)c1Cl (stereo not drawn) [Example 107, 1-{6-[1-(2,6-dichloro-3-fluorophenyl)ethoxy]-5-methyl-1,3-benzothiazol-2-yl}-3-[2-(morpholin-4-yl)ethyl]urea] | 270 to 276 | > 7.00 | > 6.30 | 5.00 to 6.30
7 | O=C(NCCN1CCOCC1)Nc1nc2ccc(OCc3cc(Cl)nc(Cl)c3)cc2s1 [Example 16, 1-{6-[(2,6-dichloropyridin-4-yl)methoxy]-1,3-benzothiazol-2-yl}-3-(2-morpholin-4-ylethyl)urea] | 193 | 5.00 to 7.00 |  | < 5.00
8 | Nc1nc2ccc(OCc3c(F)cccc3Cl)cc2s1 [Example 8, 6-[(2-chloro-6-fluorobenzyl)oxy]-1,3-benzothiazol-2-amine] | 175 | 5.00 to 7.00 |  | < 5.00
9 | COCCN(C)C(=O)Nc1nc2cc(F)c(OC(C)c3c(Cl)ccc(F)c3Cl)cc2s1 (stereo not drawn) [Example 93, 3-{6-[1-(2,6-dichloro-3-fluorophenyl)ethoxy]-5-fluoro-1,3-benzothiazol-2-yl}-1-(2-methoxyethyl)-1-methylurea] | 62 to 67 | > 7.00 | 5.00 to 6.30 | 5.00 to 6.30
10 | CC(C)OCCNC(=O)Nc1nc2cc(F)c(OC(C)c3c(Cl)ccc(F)c3Cl)cc2s1 (stereo not drawn) [Example 92, 1-{6-[1-(2,6-dichloro-3-fluorophenyl)ethoxy]-5-fluoro-1,3-benzothiazol-2-yl}-3-(2-isopropoxyethyl)urea] | 177 to 184 | > 7.00 | > 6.30 | 5.00 to 6.30
11 | O=C(Nc1nc2ccc(OCc3c(Cl)cccc3Cl)cc2s1)C1CC1 [Example 9, N-{6-[(2,6-dichlorobenzyl)oxy]-1,3-benzothiazol-2-yl}cyclopropane carboxamide] | 178 | > 7.00 |  | > 6.30
12 | CCC(Oc1ccc2nc(NC(=O)NCCN3CCOCC3)sc2c1)c1c(Cl)cccc1Cl (stereo not drawn) [Example 122, 1-{6-[1-(2,6-dichlorophenyl)propoxy]-1,3-benzothiazol-2-yl}-3-[2-(morpholin-4-yl)ethyl]urea] | 200 | > 7.00 | 5.00 to 6.30 | 5.00 to 6.30
13 | Cc1cc(COc2ccc3nc(NC(=O)NCCN4CCOCC4)sc3c2)n(C)n1 [Example 20, 1-{6-[(1,3-dimethyl-1H-pyrazol-5-yl)methoxy]-1,3-benzothiazol-2-yl}-3-(2-morpholin-4-ylethyl)urea] | 160 | 5.00 to 7.00 |  | < 5.00
